Results taken from patent publication US5438050A, “Indolocarbazole derivatives, processes for their preparation and compositions containing them” (Godecke Aktiengesellschaft, priority 1988, dated 1995).

Molecular target: protein kinase C
Assay: enzyme assay of protein kinase C activated with phosphatidylserine and diacylglycerol (according to EP-OS 0,255,126)
Format: biochemical
Settings: read-out: 50% inhibition at a concentration of
Method: The compounds according to the invention are potent inhibitors of protein kinases, such as protein kinase C. […] The experiment was carried out according to EP-OS 0,255,126 (inhibition of protein kinase C). Admittedly, indolocarbazoles have already been described as inhibitors of protein kinase C (J Antibiotic 30:275, 1977; Biochem Biophys Res Commun 135:397, 1986). However, it is thereby mainly a question of indolocarbazole-N,N-glycosidesof microbial or semisynthetic origin.

“2 (and 10)-Chloro-12-ethyl-6,7,12,13-tetrahydro-5-oxo-5H-indolo[2,3-a]pyrrolo[3,4-c]carbazole [Example 3.a]” showed an IC50 of 310 nM.
